The source of these data is ChEMBL document CHEMBL1201862, “PubChem BioAssay data set” (2004).

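Method: 48-hour compound exposure of cells in 96-well plates, five concentrations, linear interpolation of endpoints. Abbreviation: GI50, concentration required for 50% inhibition of growth.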 Calls of active or inactive are those of the source. Cut-off read from the data, not from the text of the source: active = GI50 up to about 1.1 µM and inactive = higher.

Among the test systems are A549; HCC 2998; HCT-15; HOP-92; M14; MDA-MB-435; MDA-N; MOLT-4; Malme-3M; NCI/ADR-RES; OVCAR-3; OVCAR-4; OVCAR-8; RXF 393; SF-295; SF-539; SK-MEL-28; SK-MEL-5; SN12C; SNB-19.
Experiment in all cases: growth of human tumour cells (NCI), 48 h

For the compound `CC[C@H](C)[C@H]1NC(=O)[C@@H](NC(=O)[C@@H](CC(C)C)N(C)C(=O)C2CCCN2C(=O)[C@H](C)O)[C@@H](C)OC(=O)[C@H](Cc2ccccc2)N(C)C(=O)[C@@H]2CCCN2C(=O)[C@H](CC(C)C)NC(=O)[C@@H](C)C(=O)[C@H](C(C)C)OC(=O)C[C@@H]1O` (stereo not given in full), the GI50 in the test with A549 was < 6.25 nM (active); in the test on HCC 2998, < 6.25 nM (active); in the test with HCT-15 it was 7.57 nM; in the test on HOP-92, < 6.25 nM (active); in the test on M14, < 6.25 nM (active); in the test on MDA-MB-435, < 6.25 nM (active). Moreover, the GI50 in the test on MDA-N was < 6.25 nM (active); in the test with MOLT-4 it was < 6.25 nM (active); with Malme-3M, < 6.25 nM (active); in the test with NCI/ADR-RES it was 58.9 nM (active); in the test with OVCAR-3, < 6.25 nM (active); in the test with OVCAR-4, < 6.25 nM (active). The GI50 with OVCAR-8, in the test with RXF 393, in the test on SF-295, in the test on SF-539, in the test with SK-MEL-28 and in the test with SK-MEL-5 was < 6.25 nM (active) in each case. The GI50 in the test with SN12C and in the test with SNB-19 was < 6.25 nM (active) each time.
